Assay results as given in ChEMBL document CHEMBL1122542, “A 1H NMR study of the interactions and conformations of rationally designed brodimoprim analogues in complexes with Lactobacillus casei dihydrofolate reductase” (J Med Chem, 1984).

Columns and labels:
[1] = target: T1, Dihydrofolate reductase (Lactobacillus casei, UniProt P00381); assay: Inhibition constant of compound against Lactobacillus casei dihydrofolate reductase; set-up: species or system Lacticaseibacillus casei
[2] = target: Dihydrofolate reductase (Lactobacillus casei) (UniProt P00381); assay: Tested for pK value of histidine residue(His-28) of dihydrofolate reductase from Lactobacillus casei; assay type: functional; conditions: Lacticaseibacillus casei
[3] = target: T1, Dihydrofolate reductase; assay: Inhibition constant of compound against Lactobacillus casei Dihydrofolate reductase; set-up: species or system Lacticaseibacillus casei
[4] = target: Dihydrofolate reductase (Lactobacillus casei) (UniProt P00381); conditions: Lacticaseibacillus casei
Description: Tested for pK value of histidine residue(His-28) of Dihydrofolate reductase from Lactobacillus casei

T1 sequence (P00381 whole entry): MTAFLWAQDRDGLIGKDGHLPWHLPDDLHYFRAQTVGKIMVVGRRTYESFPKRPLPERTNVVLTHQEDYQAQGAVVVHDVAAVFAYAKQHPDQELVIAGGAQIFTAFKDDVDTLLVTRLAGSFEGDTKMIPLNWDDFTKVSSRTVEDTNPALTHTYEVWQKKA
Sequence of Dihydrofolate reductase (Lactobacillus casei) (P00381 whole entry): as above

SMILES | Ki [1] | pK [2] | Ki [3] | pK [4]
COc1cc(Cc2cnc(N)nc2N)cc(OCCCNCCC(=O)O)c1Br | 5.3 nM | 6.71 | – | –
COc1cc(Cc2cnc(N)nc2N)cc(OCCCC(CCC(=O)O)C(=O)O)c1Br (stereo unspecified) | – | – | < 0.01 nM | 7.8
COc1cc(Cc2cnc(N)nc2N)cc(OCCC(=O)NC(CCC(=O)O)C(=O)O)c1Br (stereo unspecified) | – | – | 1.7 nM | 7.12
COc1cc(Cc2cnc(N)nc2N)cc(OCCC(=O)NCC(=O)O)c1Br | – | – | 4.1 nM | 6.71
COc1cc(Cc2cnc(N)nc2N)cc(OC)c1Br [BRODIMOPRIM] | 11.3 nM | 6.8 | – | –

Second part, the molecule after the results:

Ki [1] | pK [2] | Ki [3] | pK [4] | SMILES
– | – | 0.6 nM | 6.8 | COc1cc(Cc2cnc(N)nc2N)cc(OCCCCCCC(=O)O)c1Br
– | – | 0.2 nM | 6.83 | COc1cc(Cc2cnc(N)nc2N)cc(OCCCCC(=O)O)c1Br
– | – | 0.9 nM | – | COc1cc(Cc2cnc(N)nc2N)cc(OCCCC(=O)O)c1Br
– | – | 0.4 nM | – | COc1cc(Cc2cnc(N)nc2N)cc(OCCCCCC(=O)O)c1Br
